Laboratory results reported in patent publication US20040122065A1 (priority 2002, published 2004).

Test: Pharmacokinetic crossover trial: 2 mg sublingual tablet vs 4 mg commercial oral tizanidine (Zanaflex), plasma tizanidine by HPLC
Assay type: in vivo
Settings: human
Description: Two groups were randomized and there was a one week washout period between administrations. The volunteers were in the fasted state when the drugs were administered. The sublingual tablets were placed under the tongue for 5 minutes and tablet remnants, if any, were swallowed. The oral formulation was administered with a glass of water. Blood samples were taken at 0, 0.5, 1.0, 1.5, 2.0, 2.5, 3.0, 4.0, 5.0, 6.0 and 7.0 hours after administration. […] The samples were blinded from the analysts.

With `Clc1ccc2nsnc2c1NC1=NCCN1` [Tizanidine, 5-Chloro-N-(4,5-dihydro-1H-imidazol-2-yl)-2,1,3-benzothiadiazol-4-amine] as the molecule, how does the concentration at 0 h (other: sublingual, 2 mg, Plasma Tizanidine Levels, sublingual delivery of 2 mg tizanidine (sublingual tablet), fasted, 0 h after dosing, one column per test subject) read?
The concentration at 0 h was under 98.4 ng/g.

And the concentration at 0 h (po, 4 mg)?
Its concentration at 0 h is under 98.4 ng/g.
